Assay results reported in publication PMC6713189, “Dual and selective inhibitors of pteridine reductase 1 (PTR1) and dihydrofolate reductase-thymidylate synthase (DHFR-TS) from Leishmania chagasi” (Journal of Enzyme Inhibition and Medicinal Chemistry, 2019).
Where “and” joins values, the source holds several entries; their conditions need not be identical. Identical values can stand only once. Like-named read-outs stand apart in the source and are kept apart here.

Columns and labels:
LcPTR1 [1] = target: T1, LcPTR1 (Leishmania infantum, UniProt A4I067); experiment: LcPTR1 inhibition assay (single concentration and IC50, NADPH consumption at 340 nm); type: biochemical; conditions: for Ki: obtained from Cheng-Prussov equation for competitive inhibitors; for Selectivity Ki LcPTR1/ Ki LcDHFR-TS: ratio of Ki values
Description: (§1) Kinetic measurements were performed according to the protocol described[32] via spectrophotometer (Shimadzu UV-1800) at pH 4.7 (20 mM sodium acetate). NADPH consumption was monitored spectrophotometrically (340 nm) at constant temperature (30 °C). The variation of the absorbance monitored for 60 s was used to calculate the initial rate of the reaction by linear regression.
(§2) Comparison of the enzymatic activities in the absence and presence of the compounds (50 μM), which were dissolved in DMSO (5% v/v final concentration), was employed to calculate the percent inhibition (Equation (1)) (1) % Inhibition=100 − (Vi/Vc)×100 where Vi is the initial velocity in the presence of the inhibitor and Vc is the reaction rate in the presence of DMSO (5% (v/v)).
(§3) The results of this analysis were plotted in double-reciprocal graphs for visual analysis purposes only.

LcDHFR-TS [2] = target: T2, LcDHFR-TS (Leishmania infantum, UniProt Q8MQV3); experiment: LcDHFR-TS inhibition assay (single concentration and IC50, NADPH consumption at 340 nm); type: biochemical; conditions: for IC50: DHF 5.0 µM, NADPH 5.0 µM, pH 7.0, >50 from single-concentration assay; for Ki: obtained from Cheng-Prussov equation for competitive inhibitors
Description: (§4) Kinetic measurements were carried out using a standard assay, at pH 7.0 (50 mM sodium phosphate). Briefly, NADPH consumption was monitored spectrophotometrically ([…]) (Shimadzu® UV-1800, Columbia MD, USA) at constant temperature (25 °C) and the absorbance variation within the first 30 s was employed to calculate the initial rate of reaction, by linear regression of the raw data.
as §2, §3

LcPTR1 [3] = target: T1, LcPTR1; experiment: Determination of the inhibition mechanism, LcPTR1; type: biochemical
Description: as §3

LcDHFR-TS [4] = target: T2, LcDHFR-TS; experiment: Determination of the inhibition mechanism, LcDHFR-TS; type: biochemical
Description: as §3

LcDHFR-TS [5] = target: T2, LcDHFR-TS; experiment: LcDHFR-TS apparent Km determination; type: biochemical, Leishmania chagasi
Description: as §4
The effect of the pH (5.0–8.0) over enzymatic activity was investigated with 0.2 μM of LcDHFR-TS and saturating NADPH and DHF concentrations (100 μM) (50 mM citrate buffer was used for pH 5.0 activity assay. 50 mM sodium phosphate buffer was used for pH range 6.0 to 8.0 activity assay). […] All the measurements were carried out in triplicate and the apparent Km values for the cofactor and substrate were determined under a pseudo first-order kinetics assumption using least-squares non-linear regression method, as available in the GraphPad Prism version 5.0 for Windows (GraphPad® Software, San Diego, CA, USA, www.graphpad.com).

DHFR-TS [6] = conditions: read-out: Km app for L. tropica DHFR-TS; cited from earlier work
DHFR-TS [7] = conditions: read-out: Km app for L. major DHFR-TS; cited from earlier work
LcPTR1 [8] = target: T1, LcPTR1; type: biochemical, Leishmania chagasi; conditions: restated without unit; read-out: Km app for LcPTR1
Description: as §1

LdPTR1 = tested on: LdPTR1; parameters: method as in PMID 21115787; conditions: double-reciprocal plot, His-tag fused protein; read-out: Km app for LdPTR1; cited from earlier work
L. tropica PTR1 = tested on: L. tropica PTR1; parameters: method as in PMID 10415124; conditions: cited from earlier work
L. major PTR1 = conditions: cited from earlier work
L. tarantoleae PTR1 = tested on: L. tarantoleae PTR1; parameters: method as in PMID 10415124; conditions: read-out: Km app for L. tarantoleae PTR1; cited from earlier work
[9] = pH 7.0, 25 °C, other substrate saturating
[10] = pH 7.0, 25 °C, other substrate saturating, read-out: Km app for LcDHFR-TS
[11] = restated without unit, read-out: Km app for LcDHFR

T2 sequence (Q8MQV3 entry or part of it): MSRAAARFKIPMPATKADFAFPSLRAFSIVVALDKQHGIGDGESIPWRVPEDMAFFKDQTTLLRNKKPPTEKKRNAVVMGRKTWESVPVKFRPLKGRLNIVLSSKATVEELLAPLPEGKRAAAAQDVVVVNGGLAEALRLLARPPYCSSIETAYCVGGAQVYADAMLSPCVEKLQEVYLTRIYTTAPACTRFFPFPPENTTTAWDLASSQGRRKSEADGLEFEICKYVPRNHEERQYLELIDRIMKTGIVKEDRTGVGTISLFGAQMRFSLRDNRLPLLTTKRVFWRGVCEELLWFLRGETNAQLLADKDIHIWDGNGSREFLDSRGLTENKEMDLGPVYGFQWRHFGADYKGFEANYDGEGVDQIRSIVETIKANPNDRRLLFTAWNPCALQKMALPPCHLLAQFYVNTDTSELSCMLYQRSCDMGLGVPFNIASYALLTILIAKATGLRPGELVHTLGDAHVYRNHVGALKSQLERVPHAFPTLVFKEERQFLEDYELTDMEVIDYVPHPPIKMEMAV
T1 sequence (A4I067 entry or part of it): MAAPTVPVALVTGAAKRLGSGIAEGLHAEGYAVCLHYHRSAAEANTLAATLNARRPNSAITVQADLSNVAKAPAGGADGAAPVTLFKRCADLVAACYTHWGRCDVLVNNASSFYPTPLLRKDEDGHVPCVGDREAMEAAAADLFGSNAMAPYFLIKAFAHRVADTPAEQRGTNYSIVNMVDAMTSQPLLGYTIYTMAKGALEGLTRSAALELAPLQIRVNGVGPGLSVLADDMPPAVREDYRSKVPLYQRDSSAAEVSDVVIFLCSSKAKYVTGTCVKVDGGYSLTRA

Nc1nc(N)c(Cc2ccccc2)c(CCCc2ccccc2)n1 [Compound 1]
IC50 (LcPTR1 [1]): 3 µM
Ki (LcPTR1 [1]): 1.5 µM
inhibition at 50 µM (LcPTR1 [1]; pH 4.7): 90 ± 1%
Selectivity Ki LcPTR1/ Ki LcDHFR-TS (LcPTR1 [1]): 5.4 and 5.45
IC50 (LcDHFR-TS [2]): 1.65 µM
Ki (LcDHFR-TS [2]): 0.28 µM
inhibition at 50 µM (LcDHFR-TS [2]; pH 7): 100 ± 1.17%
mechanism of inhibition with respect to biopterin (LcPTR1 [3]): competitive
mechanism of inhibition with respect to the cofactor NADPH (LcPTR1 [3]): uncompetitive
NADPH Vmax app in presence of inhibitor (LcDHFR-TS [4]; compound 1 at 2 µM): 1.0 ± 0.1 nmol/min/mL
NADPH Vmax app in presence of inhibitor (LcDHFR-TS [4]; compound 1 at 5 µM): 0.5 ± 0.05 nmol/min/mL
DHF Vmax app in presence of inhibitor (LcDHFR-TS [4]; not affected by increasing concentrations of compound 1): 1.9 ± 0.1 nmol/min/mL
mechanism of inhibition related to cofactor NADPH (LcDHFR-TS [4]; saturating DHF 12.5 µM, varying NADPH): noncompetitive
mechanism of inhibition related to substrate DHF (LcDHFR-TS [4]; saturating NADPH 50 µM, varying DHF): competitive

Nc1nc(N)c(Cc2ccccc2)c(CC2CCCCC2)n1 [Compound 2]
IC50 (LcPTR1 [1]): 4.1 µM
Ki (LcPTR1 [1]): 2.05 µM
inhibition at 50 µM (LcPTR1 [1]; pH 4.7): 40 ± 1%
Selectivity Ki LcPTR1/ Ki LcDHFR-TS (LcPTR1 [1]): 0.68
IC50 (LcDHFR-TS [2]): 18 µM
Ki (LcDHFR-TS [2]): 3 µM
inhibition at 50 µM (LcDHFR-TS [2]; pH 7): 20 ± 2.4%

COc1ccccc1CCc1nc(N)nc(N)c1Cc1ccccc1 [Compound 3]
IC50 (LcPTR1 [1]): 4.6 µM
Ki (LcPTR1 [1]): 2.3 µM
LcPTR1 inhibition (LcPTR1 [1]; pH 4.7): active
Selectivity Ki LcPTR1/ Ki LcDHFR-TS (LcPTR1 [1]): 3.3 and 3.29
IC50 (LcDHFR-TS [2]): 4.2 µM
Ki (LcDHFR-TS [2]): 0.7 µM
LcDHFR-TS inhibition (LcDHFR-TS [2]; pH 7): active

CC(C)Cc1ccc(C(C)c2nc(N)nc(N)c2-c2ccccc2)cc1 (centres unmarked) [Compound 4]
IC50 (LcPTR1 [1]): 66.3 ± 9.01 µM
inhibition at 50 µM (LcPTR1 [1]; pH 4.7): 40 ± 1%
inhibition at 50 µM (LcDHFR-TS [2]; pH 7): 20 ± 2.4%

Nc1nc(N)c2ccccc2n1 [Compound 5]
IC50 (LcPTR1 [1]): 0.94 µM
Ki (LcPTR1 [1]): 0.47 µM
inhibition at 50 µM (LcPTR1 [1]; pH 4.7): 98 ± 0.8%
selectivity index (LcPTR1 [1]; selective LcPTR1 inhibitor, LcPTR1 over LcDHFR-TS (abstract)): 20
IC50 (LcDHFR-TS [2]): > 50 µM
Ki (LcDHFR-TS [2]): > 8.33 µM
inhibition at 50 µM (LcDHFR-TS [2]; pH 7): 20 ± 2.4%
mechanism of inhibition with respect to biopterin (LcPTR1 [3]): competitive
mechanism of inhibition with respect to the cofactor NADPH (LcPTR1 [3]): uncompetitive

Nc1nc(=O)c2c([nH]1)NCC(CNc1ccc(C(=O)N[C@@H](CCC(=O)O)C(=O)O)cc1)=N2 [DHF]
Vmax app for LcDHFR-TS (LcDHFR-TS [5]; [9]): 2.0 ± 0.11 nmol/min/mL
Km (LcDHFR-TS [5]; [10]): 1 ± 0.2 µM
Km (LcDHFR-TS [5]; [11]): 1 µM
Km (DHFR-TS [6]): 1.5 µM
Km (DHFR-TS [7]): 1.6 µM

NC(=O)C1=CN([C@@H]2O[C@H](COP(=O)(O)OP(=O)(O)OC[C@H]3O[C@@H](n4cnc5c(N)ncnc54)[C@H](OP(=O)(O)O)[C@@H]3O)[C@@H](O)[C@H]2O)C=CC1 [NADPH]
Km (LcPTR1 [8]): 37.5 µM
Vmax app for LcDHFR-TS (LcDHFR-TS [5]; [9]): 1.6 ± 0.1 nmol/min/mL
Km (LcDHFR-TS [5]; [10]): 2.3 ± 0.5 µM
Km (LcDHFR-TS [5]; [11]): 2.3 µM
Km (LdPTR1): 18.5 µM
Km (L. tropica PTR1): 19 µM
Km (L. major PTR1): 6.7 µM
Km (L. tarantoleae PTR1): 19 µM
Km (DHFR-TS [6]): 2.7 µM
Km (DHFR-TS [7]): 0.45 µM

biopterin
Km (LdPTR1): 5.8 µM
Km (L. tropica PTR1): 3.5 µM
Km (L. major PTR1): 4.6 µM
Km (L. tarantoleae PTR1): 3.5 µM
